Assay [1] deals with Melanocortin receptor 5 (Mus musculus, UniProt P41149). Nature of the assay: Agonist activity on mouse melanocortin 5 receptor (mMC5R) stably expressed in […] cells. It counts as functional, cell-based.
Assay [2] deals with Melanocyte-stimulating hormone receptor (Mus musculus, UniProt Q01727). Nature of the assay: Agonist activity on mouse melanocortin 1 receptor (mMC1R) stably expressed in HEK cells. In kind it is functional, cell-based, HEK293.
The target of assay [3] is Melanocortin receptor 4 (Mus musculus, UniProt P56450). Nature of the assay: Agonist activity on mouse melanocortin 4 receptor (mMC4R) stably expressed in […] cells. In kind it is functional, cell-based.
In assay [4] the target is Melanocortin receptor 3 (Mus musculus, UniProt P33033). Nature of the assay: Agonist activity on mouse Melanocortin 3 receptor (mMC3R) stably expressed in HEK cells. It counts as functional, cell-based, HEK293.

Each structure is given as a SMILES string. Bounds are passed on as bounds.

For orientation: EC50 means the concentration that produces a half-maximal response. A lower EC50 goes with a more potent agent.

Chain of Melanocortin receptor 4 (P56450 whole entry): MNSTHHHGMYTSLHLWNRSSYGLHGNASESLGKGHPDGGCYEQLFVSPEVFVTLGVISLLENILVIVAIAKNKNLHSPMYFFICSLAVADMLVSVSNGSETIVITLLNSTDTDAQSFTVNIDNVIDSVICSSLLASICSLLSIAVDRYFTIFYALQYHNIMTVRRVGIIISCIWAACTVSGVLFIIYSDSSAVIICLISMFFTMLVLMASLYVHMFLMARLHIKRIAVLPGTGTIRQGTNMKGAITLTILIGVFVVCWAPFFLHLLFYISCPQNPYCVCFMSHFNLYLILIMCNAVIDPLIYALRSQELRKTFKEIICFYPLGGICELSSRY
Chain of Melanocortin receptor 3 (P33033 whole entry): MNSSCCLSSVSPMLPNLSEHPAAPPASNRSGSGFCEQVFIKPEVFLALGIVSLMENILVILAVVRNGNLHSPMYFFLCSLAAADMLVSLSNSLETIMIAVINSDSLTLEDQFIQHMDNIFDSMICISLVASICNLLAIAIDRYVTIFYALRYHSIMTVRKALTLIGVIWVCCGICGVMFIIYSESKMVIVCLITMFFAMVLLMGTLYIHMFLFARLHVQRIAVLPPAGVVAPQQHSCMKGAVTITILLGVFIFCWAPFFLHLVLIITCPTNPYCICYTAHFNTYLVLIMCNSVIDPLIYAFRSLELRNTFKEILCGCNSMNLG
Chain of Melanocyte-stimulating hormone receptor (Q01727 whole entry): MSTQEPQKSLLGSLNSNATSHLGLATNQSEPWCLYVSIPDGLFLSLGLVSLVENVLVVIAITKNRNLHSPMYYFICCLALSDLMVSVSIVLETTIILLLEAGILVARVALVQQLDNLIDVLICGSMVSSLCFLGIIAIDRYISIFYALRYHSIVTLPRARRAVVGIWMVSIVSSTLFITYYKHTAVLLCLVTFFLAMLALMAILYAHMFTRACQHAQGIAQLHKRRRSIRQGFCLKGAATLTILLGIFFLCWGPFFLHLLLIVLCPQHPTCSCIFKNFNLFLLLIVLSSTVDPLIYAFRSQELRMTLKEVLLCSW
Chain of Melanocortin receptor 5 (P41149 whole entry): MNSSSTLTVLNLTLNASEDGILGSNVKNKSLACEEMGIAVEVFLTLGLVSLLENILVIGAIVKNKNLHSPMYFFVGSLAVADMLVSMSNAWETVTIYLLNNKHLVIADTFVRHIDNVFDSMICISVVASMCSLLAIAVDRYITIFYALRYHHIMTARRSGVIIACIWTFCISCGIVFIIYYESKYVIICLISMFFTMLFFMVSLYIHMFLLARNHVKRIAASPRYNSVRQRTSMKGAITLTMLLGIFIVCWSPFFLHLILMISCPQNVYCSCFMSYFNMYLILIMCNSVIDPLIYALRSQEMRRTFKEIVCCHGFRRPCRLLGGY

`Cc1cccc(CNC(=O)[C@H](Cc2c[nH]c3ccccc23)NC(=O)NCc2ccccc2)c1`: the EC50 in assay [1] is above 100 µM; in assay [2] it was 28 µM; in assay [3], above 100 µM; in assay [4], above 100 µM.
Turning to `NCCCCNC(=O)[C@@H](Cc1c[nH]c2ccccc12)NC(=O)NCc1ccccc1`, the EC50 in assay [1] is 32.8 µM; in assay [2], 42.4 µM; in assay [3] it was 23.7 µM; in assay [4] it was 100 µM.
For the molecule `NCCCCCNC(=O)[C@H](Cc1c[nH]c2ccccc12)NC(=O)NCc1ccccc1`, the EC50 in assay [1] is 20 µM; in assay [2] it was 14.8 µM; in assay [3], above 100 µM; in assay [4], above 100 µM.
Consider `NCc1ccc(NC(=O)[C@H](Cc2c[nH]c3ccccc23)NC(=O)NCc2ccccc2)cc1`, for which the EC50 in assay [1] amounted to 4.9 µM; in assay [2] it was 0.4 µM; in assay [3], 0.4 µM; in assay [4], 10.7 µM.
For the molecule `NCCCCNC(=O)[C@H](Cc1ccc(OCc2ccccc2)cc1)NC(=O)NCc1ccccc1`, the EC50 in assay [1] is 14.4 µM; in assay [2] it was 20.5 µM; in assay [3] it was above 100 µM; in assay [4], above 100 µM.
Regarding `NCCCCNC(=O)[C@H](CCc1ccccc1)NC(=O)NCc1ccccc1`, the EC50 in assay [1], in assay [2], in assay [3] and in assay [4] was above 100 µM in each case.
For `CC1CCN(CNC(=O)[C@H](Cc2c[nH]c3ccccc23)NC(=O)NCc2ccccc2)CC1`, the EC50 in assay [1] is 8.2 µM; in assay [2] it was 5.2 µM; in assay [3], above 100 µM; in assay [4], 4.4 µM.
On the same counts, the results for `NCCCNC(=O)[C@H](Cc1c[nH]c2ccccc12)NC(=O)NCc1ccccc1` are 39.9 µM, 51.2 µM, above 100 µM and above 100 µM.
For the molecule `NCCCCNC(=O)[C@H](Cc1c[nH]c2ccccc12)NC(=O)NN1CCC(Cc2ccccc2)CC1`, the EC50 came out at 28.9 µM in assay [1], 20 µM in assay [2], 100 µM in assay [3] and 100 µM in assay [4].
As for `NCCCCNC(=O)[C@H](Cc1c[nH]c2ccccc12)NC(=O)NC1CCN(Cc2ccccc2)CC1`, the EC50 in assay [1] stood at 8.2 µM; in assay [2], 5 µM; in assay [3], 2.8 µM; in assay [4] it was 4.4 µM.
In the same order, the values of `NCCCCNC(=O)[C@H](Cc1c[nH]c2ccccc12)NC(=O)NN1CCc2ccccc2C1` are 4.9 µM, 7.9 µM, 3.4 µM and 1.7 µM.
As for `NCCCCCCNC(=O)[C@H](Cc1c[nH]c2ccccc12)NC(=O)NCc1ccccc1`, the EC50 in assay [1] is above 100 µM; in assay [2] it was 22.3 µM; in assay [3] it was above 100 µM; in assay [4] it was above 100 µM.
Regarding `NCCCCNC(=O)[C@H](Cc1c[nH]c2ccccc12)NC(=O)NCc1ccccc1`, the EC50 in assay [1] is 30.5 µM; in assay [2], 55 µM; in assay [3], 23.7 µM; in assay [4], above 100 µM.
In the same order, the values of `NCCCCNC(=O)[C@H](Cc1c[nH]c2ccccc12)NC(=O)NCCc1ccccc1` are above 100 µM, above 100 µM, above 100 µM and above 100 µM.
